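Where inhibition never reached the appropriate level, the endpoint shown equals the highest concentration tested. Otherwise, values were interpolated linearly from a five-concentration, 48-hour dose response in 96-well plates. At the GI50, growth is halved. Definition used: TGI = concentration required for complete inhibition of growth.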
Tests used:
Test in all cases: growth of human tumour cells (NCI), 48 h
RXF 393 renal = test system: RXF 393 renal
RPMI-8226 leukemia = test system: RPMI-8226 leukemia
NCI-H226 lung = test system: NCI-H226 lung
SF-268 CNS = test system: SF-268 CNS
KM12 colon = test system: KM12 colon
LOX IMVI melanoma = test system: LOX IMVI melanoma
OVCAR-5 ovarian = test system: OVCAR-5 ovarian
A549 NSCLC = test system: A549 NSCLC
EKVX NSCLC = test system: EKVX NSCLC
U251 CNS = test system: U251 CNS
SK-MEL-2 melanoma = test system: SK-MEL-2 melanoma
SNB-19 CNS = test system: SNB-19 CNS
OVCAR-8 ovarian = test system: OVCAR-8 ovarian
COLO 205 colon = test system: COLO 205 colon
HCT-15 colon = test system: HCT-15 colon
CAKI-1 renal = test system: CAKI-1 renal
HCT-116 colon = test system: HCT-116 colon
IGROV1 ovarian = test system: IGROV1 ovarian
NCI/ADR-RES ovarian = test system: NCI/ADR-RES ovarian
SF-539 CNS = test system: SF-539 CNS
MDA-MB-231 breast = test system: MDA-MB-231 breast
786-0 renal = test system: 786-0 renal
ACHN renal = test system: ACHN renal
NCI-H460 lung = test system: NCI-H460 lung
BT-549 breast = test system: BT-549 breast
OVCAR-3 ovarian = test system: OVCAR-3 ovarian
HS 578T breast = test system: HS 578T breast
OVCAR-4 ovarian = test system: OVCAR-4 ovarian
UACC-257 melanoma = test system: UACC-257 melanoma
MCF7 breast = test system: MCF7 breast
MOLT-4 leukemia = test system: MOLT-4 leukemia
MDA-MB-435 = test system: MDA-MB-435
SF-295 CNS = test system: SF-295 CNS
PC-3 prostate = test system: PC-3 prostate
K-562 leukemia = test system: K-562 leukemia
NCI-H23 lung = test system: NCI-H23 lung
SK-MEL-28 melanoma = test system: SK-MEL-28 melanoma
SK-MEL-5 melanoma = test system: SK-MEL-5 melanoma
HL-60(TB) leukemia = test system: HL-60(TB) leukemia
SW-620 colon = test system: SW-620 colon
A498 renal = test system: A498 renal
NCI-H522 lung = test system: NCI-H522 lung
SN12C renal = test system: SN12C renal
UACC-62 melanoma = test system: UACC-62 melanoma
SR leukemia = test system: SR leukemia
M14 melanoma = test system: M14 melanoma
HT29 colon = test system: HT29 colon
TK-10 renal = test system: TK-10 renal
UO-31 renal = test system: UO-31 renal
HOP-92 NSCLC = test system: HOP-92 NSCLC
SK-OV-3 ovarian = test system: SK-OV-3 ovarian
HOP-62 NSCLC = test system: HOP-62 NSCLC
SNB-75 CNS = test system: SNB-75 CNS
DU-145 prostate = test system: DU-145 prostate

Which results are given for `Nc1cc(N)c2nc(-c3ccccc3)c(Nc3ccc(F)cc3)nc2c1`?
GI50 (RXF 393 renal): 8.71 µM; TGI (RXF 393 renal): 28.8 µM; GI50 (RPMI-8226 leukemia): 4.64 µM; TGI (RPMI-8226 leukemia): 34.6 µM; GI50 (NCI-H226 lung): 17.9 µM; TGI (NCI-H226 lung): 47.5 µM; GI50 (SF-268 CNS): 13.2 µM; TGI (SF-268 CNS): 41 µM; GI50 (KM12 colon): 12 µM; TGI (KM12 colon): 29.5 µM; GI50 (LOX IMVI melanoma): 4.81 µM; TGI (LOX IMVI melanoma): 18 µM; GI50 (OVCAR-5 ovarian): 38.4 µM; TGI (OVCAR-5 ovarian): > 100 µM; GI50 (A549 NSCLC): 17.2 µM; TGI (A549 NSCLC): 44.6 µM; GI50 (EKVX NSCLC): 12 µM; TGI (EKVX NSCLC): 30 µM; GI50 (U251 CNS): 5.65 µM; TGI (U251 CNS): 20 µM; GI50 (SK-MEL-2 melanoma): 29.8 µM; TGI (SK-MEL-2 melanoma): > 100 µM; GI50 (SNB-19 CNS): 22.1 µM; TGI (SNB-19 CNS): 40 µM; GI50 (OVCAR-8 ovarian): 12.4 µM; TGI (OVCAR-8 ovarian): 30.3 µM; GI50 (COLO 205 colon): 20.3 µM; TGI (COLO 205 colon): 55.9 µM; GI50 (HCT-15 colon): 12.7 µM; TGI (HCT-15 colon): 38.1 µM; GI50 (CAKI-1 renal): 19.2 µM; TGI (CAKI-1 renal): 40.4 µM; GI50 (HCT-116 colon): 20.1 µM; TGI (HCT-116 colon): > 100 µM; GI50 (IGROV1 ovarian): 16.6 µM; TGI (IGROV1 ovarian): > 100 µM; GI50 (NCI/ADR-RES ovarian): 23.8 µM; TGI (NCI/ADR-RES ovarian): 57.5 µM; GI50 (SF-539 CNS): 11 µM; TGI (SF-539 CNS): 24.6 µM; GI50 (MDA-MB-231 breast): 11 µM; TGI (MDA-MB-231 breast): 30.5 µM; GI50 (786-0 renal): 17.4 µM; TGI (786-0 renal): 54.3 µM; GI50 (ACHN renal): 10.3 µM; TGI (ACHN renal): 22.5 µM; GI50 (NCI-H460 lung): 26.4 µM; TGI (NCI-H460 lung): > 100 µM; GI50 (BT-549 breast): 11.9 µM; TGI (BT-549 breast): 27.2 µM; GI50 (OVCAR-3 ovarian): 4.66 µM; TGI (OVCAR-3 ovarian): 17.8 µM; GI50 (HS 578T breast): 19.1 µM; TGI (HS 578T breast): 58.8 µM; GI50 (OVCAR-4 ovarian): 13.4 µM; TGI (OVCAR-4 ovarian): 48.8 µM; GI50 (UACC-257 melanoma): 15.3 µM; TGI (UACC-257 melanoma): 29 µM; GI50 (MCF7 breast): 12.5 µM; TGI (MCF7 breast): > 100 µM; GI50 (MOLT-4 leukemia): > 100 µM; TGI (MOLT-4 leukemia): > 100 µM; GI50 (MDA-MB-435): 7.34 µM; TGI (MDA-MB-435): 20.8 µM; GI50 (SF-295 CNS): 14.4 µM; TGI (SF-295 CNS): 32.4 µM; GI50 (PC-3 prostate): 11.7 µM; TGI (PC-3 prostate): > 100 µM; GI50 (K-562 leukemia): 4.97 µM; TGI (K-562 leukemia): > 100 µM; GI50 (NCI-H23 lung): 22.5 µM; TGI (NCI-H23 lung): 49.1 µM; GI50 (SK-MEL-28 melanoma): 20.4 µM; TGI (SK-MEL-28 melanoma): 39.3 µM; GI50 (SK-MEL-5 melanoma): 14.4 µM; TGI (SK-MEL-5 melanoma): 33 µM; GI50 (HL-60(TB) leukemia): 11.3 µM; TGI (HL-60(TB) leukemia): > 100 µM; GI50 (SW-620 colon): 13.6 µM; TGI (SW-620 colon): 39.2 µM; GI50 (A498 renal): 17.4 µM; TGI (A498 renal): 33.8 µM; GI50 (NCI-H522 lung): > 100 µM; TGI (NCI-H522 lung): > 100 µM; GI50 (SN12C renal): 15.6 µM; TGI (SN12C renal): 33.9 µM; GI50 (UACC-62 melanoma): 16.1 µM; TGI (UACC-62 melanoma): 31.7 µM; GI50 (SR leukemia): 5.36 µM; TGI (SR leukemia): > 100 µM; GI50 (M14 melanoma): 16.3 µM; TGI (M14 melanoma): 43.3 µM; GI50 (HT29 colon): 18.6 µM; TGI (HT29 colon): 35.3 µM; GI50 (TK-10 renal): 17.3 µM; TGI (TK-10 renal): 35.6 µM; GI50 (UO-31 renal): 16.9 µM; TGI (UO-31 renal): 61.4 µM; GI50 (HOP-92 NSCLC): 13.1 µM; TGI (HOP-92 NSCLC): 43.6 µM; GI50 (SK-OV-3 ovarian): 40.7 µM; TGI (SK-OV-3 ovarian): > 100 µM; GI50 (HOP-62 NSCLC): 37.8 µM; TGI (HOP-62 NSCLC): > 100 µM; GI50 (SNB-75 CNS): 20.8 µM; TGI (SNB-75 CNS): 41.9 µM; GI50 (DU-145 prostate): 12 µM; TGI (DU-145 prostate): 28.3 µM
